From BindingDB's records for doi:10.7270/Q2BR8QM3 (Nmmlsc, 2008)
Structures can show the parent of a compound that is named as a salt.

These compounds were tested against T1, Bcl-2-like protein 2 (Homo sapiens, UniProt Q92843) (assay: Bcl-W/Bim binding regulators – biochemical, multiplexed, bead-based flow cytometry, fluorescence, dose response (AID 1330)). Details: not given.
T1 sequence (Q92843 whole entry): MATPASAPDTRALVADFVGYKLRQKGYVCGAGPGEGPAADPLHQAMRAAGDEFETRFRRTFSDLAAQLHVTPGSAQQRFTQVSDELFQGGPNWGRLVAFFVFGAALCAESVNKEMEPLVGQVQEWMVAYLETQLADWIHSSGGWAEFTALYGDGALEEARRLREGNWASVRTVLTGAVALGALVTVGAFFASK

| EC50 | Structure (SMILES) |
| --- | --- |
| 8.37 µM | O=C1c2ccccc2-c2onc3ccc(NCc4ccco4)c1c23 [MLS000080234] |
| 4.93 µM | CCOC(=O)C1CCN(C(=O)Nc2ccc3nc(-c4ccco4)c(-c4ccco4)nc3c2)CC1 [MLS000113285] |
| 3.52 µM | O=[N+]([O-])c1ccc(N=NCc2ccc(O)c(O)c2O)c(S(=O)(=O)N2CCOCC2)c1 [MLS000336720] |
| 4.76 µM | O=C1C=CC(C=NNC(=O)C(=Cc2ccc([N+](=O)[O-])cc2)NC(=O)c2ccccc2)C(O)=C1O (centres undefined) [MLS000530401] |
| 1.56 µM | COc1ccc2c3c(cccc13)N(C)N=C2C [MLS000554700] |
| 16.6 µM | OCCN1CCN(CCCc2c3c(cc4c2CCC4)CCC3)CC1 [MLS000698424] |
| 1.11 µM | O=C1c2ccccc2-c2onc3ccc(NCCCn4ccnc4)c1c23 [SMR000044769] |

More lines, now with the values behind:

| Structure (SMILES) | EC50 |
| --- | --- |
| Cc1cc(N)ccc1N1CCCC1 [3-methyl-4-(1-pyrrolidinyl)aniline;hydrochloride] | 3.96 µM |
| COc1cc(C2Nc3cccc4cccc(c34)N2)cc(OC)c1O [4-(2,3-dihydro-1H-perimidin-2-yl)-2,6-dimethoxyphenol] | 3.25 µM |
| COc1cc(/C=C2\CC/C(=C\c3cc(OC)c(O)c(OC)c3)C2=O)cc(OC)c1O [(2E,5E)-2,5-bis[(4-hydroxy-3,5-dimethoxyphenyl)methylidene]cyclopentan-1-one] | 3.31 µM |
| CN1CCc2cccc3c2[C@H]1Cc1ccc(O)c(O)c1-3 [APOMORPHINE HYDROCHLORIDE] | 19 µM |
| COc1cccc2c(SCC(=O)NN=Cc3ccc(O)cc3O)cc(C)nc12 [N'-[(E)-(2-hydroxy-4-oxo-1-cyclohexa-2,5-dienylidene)methyl]-2-[(8-methoxy-2-methyl-4-quinolinyl)thio]acetohydrazide] | 55.2 µM |
| c1ccc(Nc2cccc(Nc3ccccc3)n2)cc1 [N,N'-diphenyl-2,6-pyridinediamine] | 2.58 µM |
| COc1cc(C=NNC(=O)CN(Cc2ccco2)S(=O)(=O)c2ccccc2)ccc1O [N-(2-furanylmethyl)-N-[2-[[(E)-(3-methoxy-4-oxo-1-cyclohexa-2,5-dienylidene)methyl]hydrazo]-2-oxoethyl]benzenesulfonamide] | 15.3 µM |
| COc1cccc(CN=Nc2nn3cnnc3c3ccccc23)c1 [N-[1-(3-Methoxy-phenyl)-meth-(E)-ylidene]-N'-[1,2,4]triazolo[3,4-a]phthalazin-6-yl-hydrazine] | 2.43 µM |
| CCC(=O)N(CC)C1C(=O)C(=O)c2ccccc2C1=O (centres undefined) [N-ethyl-N-(1-hydroxy-3,4-dioxo-2-naphthalenyl)propanamide] | 0.92 µM |

Same assay, conditions: inactive by the depositor's call

| EC50 | Structure (SMILES) |
| --- | --- |
| 34 µM | COC(=O)CSc1ncnc2c1sc1nc(-c3ccco3)c3c(c12)CC(C)(C)OC3 [MLS000039339] |
| 31.7 µM | CCOc1cc(C2Nc3cccc4cccc(c34)N2)ccc1O [MLS000068595] |
| 7.58 µM | Cc1cc(-c2nnc3n2N=C(c2ccc(-c4ccccc4)cc2)CS3)[nH]n1 [MLS000082991] |
| 13.6 µM | Cc1cc2n(c1)CCn1c(C)ccc1-2 [MLS000104384] |
| 18.5 µM | Clc1nc(NCc2cccnc2)nc(N2CCOCC2)n1 [MLS000121154] |
| 4.34 µM | Cc1ccc(NC2=C(NC(=O)c3ccccc3)C(=O)c3ccccc3C2=O)cc1Cl [MLS000392290] |
| 6.13 µM | CCOc1cccc(CNc2ccc(O)cc2)c1OCc1ccccc1Cl [MLS000580486] |
| 0.67 µM | COc1cc2nc(=S)[nH]c(NCCc3ccc(S(N)(=O)=O)cc3)c2cc1OC [MLS000674601] |
| 24.2 µM | COc1ccc(C)cc1-n1c(=O)c2ccccc2c2ccccc2c1=O [MLS000682999] |
| 9.76 µM | Fc1ccc(C2=Nc3cccc4cccc(c34)N2)cc1 [MLS000687139] |
| 27.5 µM | COc1ccc(/C=C/C(=O)c2cc(Br)ccc(=O)c2O)cc1 [MLS000702099] |
| 6.14 µM | CCOC(=O)c1c(O)nc2ccc(Cl)c3c2c1-c1ccccc1C3=O [MLS000704595] |
| 27.9 µM | Cc1ccc(/C=C/C(=O)c2ccccc(=O)c2O)cc1C [MLS000756172] |
| 3.68 µM | COCCCNc1nc(S)nc2cc(OC)c(OC)cc12 [SMR000026607] |
| 29.6 µM | CSc1nnc2c3cc(C)ccc3n(Cc3ccccc3)c2n1 [SMR000046397] |

Second part, the compound before the results:

| Structure (SMILES) | EC50 |
| --- | --- |
| COc1cc(CNc2ccc3[nH]c(=O)[nH]c3c2)cc(Br)c1OCC(=O)NC(C)(C)C [2-[2-bromo-6-methoxy-4-[[(2-oxo-1,3-dihydrobenzimidazol-5-yl)amino]methyl]phenoxy]-N-tert-butylacetamide] | 1.47 µM |
| Cc1cc(OCc2cn3cccnc3n2)ccc1Cl [2-[(4-chloranyl-3-methyl-phenoxy)methyl]imidazo[1,2-a]pyrimidine] | 19.8 µM |
| Cc1ccc(/C=C/C2=Cc3c(sc(NC(=O)CSc4nnc(N)[nH]4)c3C#N)C(C)(C)C2)o1 [2-[(5-azanyl-1H-1,2,4-triazol-3-yl)sulfanyl]-N-[3-cyano-7,7-dimethyl-5-[(E)-2-(5-methylfuran-2-yl)ethenyl]-6H-1-benzothiophen-2-yl]ethanamide] | 6.38 µM |
| O=C(CSc1ccc2nnc(-c3ccccn3)n2n1)Nc1nccs1 [2-[[3-(2-pyridinyl)-[1,2,4]triazolo[4,3-b]pyridazin-6-yl]thio]-N-(2-thiazolyl)acetamide] | 14.1 µM |
| Cc1ccc(-c2cc(-c3ccc(C)o3)nc(N)c2C#N)cc1 [2-amino-6-(5-methylfuran-2-yl)-4-(4-methylphenyl)pyridine-3-carbonitrile] | 18.5 µM |
| CCN(CC)c1ccc(NC2=C(Cl)C(=O)c3ccccc3C2=O)cc1 [2-chloro-3-{[4-(diethylamino)phenyl]amino}naphthoquinone] | 0.17 µM |
| O=C(/C=C/c1ccccc1Cl)c1ccccc(=O)c1O [3-[(E)-3-(2-chlorophenyl)prop-2-enoyl]-2-oxidanyl-cyclohepta-2,4,6-trien-1-one] | 11.8 µM |
| Cc1nc2ncccn2c1-c1csc(Nc2ccccc2)n1 [4-(2-methyl-3-imidazo[1,2-a]pyrimidinyl)-N-phenyl-2-thiazolamine] | 8.71 µM |
| CCN(CC)c1ccc(Nc2nc(N3CCOCC3)c3ccccc3n2)cc1 [4-N,4-N-diethyl-1-N-(4-morpholin-4-ylquinazolin-2-yl)benzene-1,4-diamine] | 4.71 µM |
| CCOc1cccc(CNc2ccc(O)cc2)c1OCc1ccc(Cl)cc1 [4-[[2-[(4-chlorophenyl)methoxy]-3-ethoxyphenyl]methylamino]phenol] | 10.2 µM |
| Cc1cc(C)nc(SCc2cc(=O)c(OC(=O)c3ccc(Cl)c([N+](=O)[O-])c3)co2)n1 [4-chloro-3-nitrobenzoic acid [6-[[(4,6-dimethyl-2-pyrimidinyl)thio]methyl]-4-oxo-3-pyranyl] ester] | 6.18 µM |
| CCc1ccc(/C=C/C(=O)c2cc(Br)ccc(=O)c2O)cc1 [5-bromo-3-[(E)-3-(4-ethylphenyl)-1-oxoprop-2-enyl]-2-hydroxy-1-cyclohepta-2,4,6-trienone] | 52.1 µM |
| COc1cc2nc(=S)[nH]c(NCC3CCCO3)c2cc1OC (centres undefined) [6,7-dimethoxy-4-(2-oxolanylmethylamino)-1H-quinazoline-2-thione] | 4.62 µM |
| COc1ccc(C2=Nn3c(nnc3-c3ccco3)SC2)cc1OC [6-(3,4-Dimethoxy-phenyl)-3-furan-2-yl-7H-[1,2,4]triazolo[3,4-b][1,3,4]thiadiazine] | 4.24 µM |
| CN(N=C/C=C/c1ccccc1)C1=NS(=O)(=O)c2ccccc21 [(1E,2E)-3-phenylacrylaldehyde (1,1-dioxido-1,2-benzisothiazol-3-yl)(methyl)hydrazone] | 3.67 µM |
| Cc1ccc(-c2ccc(/C=C3\SC(N4CCOCC4)=NC3=O)o2)cc1 [(5Z)-5-[[5-(4-methylphenyl)-2-furanyl]methylidene]-2-(4-morpholinyl)-4-thiazolone] | 89 µM |
| O=C(/C=C/c1ccc(-c2ccccc2)o1)c1ccccc1 [(E)-1-phenyl-3-(5-phenyl-2-furanyl)-2-propen-1-one] | 13.9 µM |
| O=C(/C=C\c1ccc(-c2ccccc2)o1)c1ccccc1 [(Z)-1-phenyl-3-(5-phenyl-2-furanyl)-2-propen-1-one] | 10.6 µM |
| COc1cc(C2Nc3cccc4cccc(c34)N2)ccc1OC(C)=O [Acetic acid 4-(2,3-dihydro-1H-perimidin-2-yl)-2-methoxy-phenyl ester] | 11.5 µM |
| COCCCn1c(N)c(C(=O)Nc2sc3c(c2C(=O)OC)CCCC3)c2nc3ccccc3nc21 [MLS000595323] | 2.34 µM |
| CC(=O)c1ccc(NC(=O)c2ccc3nc(-c4ccco4)c(-c4ccco4)nc3c2)cc1 [N-(4-acetylphenyl)-2,3-di-2-furyl-6-quinoxalinecarboxamide] | 3.97 µM |
| COc1ccc(CCNC(=O)c2ccc3nc(-c4ccco4)c(-c4ccco4)nc3c2)cc1OC [N-[2-(3,4-dimethoxyphenyl)ethyl]-2,3-di-2-furylquinoxaline-6-carboxamide] | 12.2 µM |
| COc1ccccc1NC1=C(NC(C)=O)C(=O)c2ccccc2C1=O [N-[3-(2-methoxyanilino)-1,4-dioxonaphthalen-2-yl]acetamide] | 4 µM |
| CC(=O)NC1=C(NC2CCS(=O)(=O)C2)C(=O)c2ccccc2C1=O (centres undefined) [N-[3-[(1,1-dioxothiolan-3-yl)amino]-1,4-dioxonaphthalen-2-yl]acetamide] | 3.49 µM |
| Cc1cccc(C(=O)/N=c2\c(C#N)cc3c(=O)n4cccc(C)c4nc3n2Cc2ccco2)c1 [N-[3-cyano-1-(furan-2-ylmethyl)-10-methyl-5-oxodipyrido[3,4-c:1',2'-f]pyrimidin-2-ylidene]-3-methylbenzamide] | 41.3 µM |
| COc1cc(CNc2ccc(N3CCCC3)cc2)cc(Cl)c1OC [N-[(3-chloranyl-4,5-dimethoxy-phenyl)methyl]-4-pyrrolidin-1-yl-aniline] | 3.72 µM |
| Cc1ccc(C=NN(C)C2=NS(=O)(=O)c3ccccc32)o1 [N-methyl-N-[(5-methyl-2-furanyl)methylideneamino]-1,1-dioxo-1,2-benzothiazol-3-amine] | 16.6 µM |
| CC(C)(C)NC(=O)COc1ccc(CNc2ccc3[nH]c(O)nc3c2)cc1 [N-tert-butyl-2-[4-[[(2-oxidanylidene-1,3-dihydrobenzimidazol-5-yl)amino]methyl]phenoxy]ethanamide] | 6.29 µM |
